Key:
[1] = biological target: soluble human BACE1 catalytic domain (Homo sapiens (Human), UniProt P56817); test: BACE1 HTRF FRET Assay; type: biochemical; conditions: Ki calculated from IC50 using the Cheng-Prusoff equation; QSY7-APPswe-Eu substrate, pH 5.0; read-out: BACE-1 Ki
From the text: • Reagents: Na^+-Acetate pH 5.0; 1% Brij-35; Glycerol; Dimethyl Sulfoxide (DMSO); Recombinant human soluble BACE1 catalytic domain (>95% pure); APP Swedish mutant peptide substrate (QSY7-APP^swe-Eu): QSY7-EISEVNLDAEFC-Europium-amide.
A homogeneous time-resolved FRET assay can be used to determine IC50 values for inhibitors of the soluble human BACE1 catalytic domain. This assay monitors the increase of 620 nm fluorescence that resulted from BACE1 cleavage of an APPswedish APP^swe mutant peptide FRET substrate (QSY7-EISEVNLDAEFC-Europium-amide). This substrate contains an N-terminal QSY7 moiety that serves as a quencher of the C-terminal Europium fluorophore (620 nm Em). In the absence of enzyme activity, 620 nm fluorescence is low in the assay and increased linearly over 3 hours in the presence of uninhibited BACE1 enzyme. Inhibition of BACE1 cleavage of the QSY7-APP^swe-Eu substrate by inhibitors is manifested as a suppression of 620 nm fluorescence.
Varying concentrations of inhibitors at 3× the final desired concentration in a volume of 10 ul are preincubated with purified human BACE1 catalytic domain (3 nM in 10 μl) for 30 minutes at 30° C. in reaction buffer containing 20 mM Na-Acetate pH 5.0, 10% glycerol, 0.1% Brij-35 and 7.5% DSMO. Reactions are initiated by addition of 10 μl of 600 nM QSY7-APP^swe-Eu substrate (200 nM final) to give a final reaction volume of 30 μl in a 384 well Nunc HTRF plate. The reactions are incubated at 30° C. for 1.5 hours. The 620 nm fluorescence is then read on a Rubystar HTRF plate reader (BMG Labtechnologies) using a 50 millisecond delay followed by a 400 millisecond acquisition time window. Inhibitor IC50 values are derived from non-linear regression analysis of concentration response curves. Ki values are then calculated from IC50 values using the Cheng-Prusoff equation using a previously determined m value of […] for the QSY7-APP^swe-Eu substrate at BACE1.

[2] = biological target: purified human autoBACE-2 (Homo sapiens (Human), UniProt Q9Y5Z0); test: BACE-2 Assay (BACE-HTRF assay); type: biochemical; conditions: Ki calculated from IC50 using the Cheng-Prusoff equation; QSY7-EISEVNLDAEFC-Eu-amide substrate, pH 5.0
Experimental: Inhibitor IC50s at purified human autoBACE-2 are determined in a time-resolved endpoint proteolysis assay that measures hydrolysis of the QSY7-EISEVNLDAEFC-Eu-amide FRET peptide substrate (BACE-HTRF assay). BACE-mediated hydrolysis of this peptide results in an increase in relative fluorescence (RFU) at 620 nm after excitation with 320 nm light. Inhibitor compounds, prepared at 3× the desired final concentration in 1×BACE assay buffer (20 mM sodium acetate pH 5.0, 10% glycerol, 0.1% Brij-35) supplemented with 7.5% DMSO are preincubated with an equal volume of autoBACE-2 enzyme diluted in 1×BACE assay buffer (final enzyme concentration 1 nM) in black 384-well NUNC plates for 30 minutes at 30° C. […] DMSO is present at 5% final concentration in the assay. Following laser excitation of sample wells at 320 nm, the fluorescence signal at 620 nm is collected for 400 ms following a […] on a RUBYstar HTRF plate reader (BMG Labtechnologies). Raw RFU data is normalized to maximum (1.0 nM BACE/DMSO) and minimum (no enzyme/DMSO) RFU values. IC50s are determined by nonlinear regression analysis (sigmoidal dose response, variable slope) of percent inhibition data with minimum and maximum values set to 0 and 100 percent respectively. Similar IC50s are obtained when using raw RFU data. The Ki values are calculated from the IC50 using the Cheng-Prusoff equation.

Chain of soluble human BACE1 catalytic domain (P56817 75-416): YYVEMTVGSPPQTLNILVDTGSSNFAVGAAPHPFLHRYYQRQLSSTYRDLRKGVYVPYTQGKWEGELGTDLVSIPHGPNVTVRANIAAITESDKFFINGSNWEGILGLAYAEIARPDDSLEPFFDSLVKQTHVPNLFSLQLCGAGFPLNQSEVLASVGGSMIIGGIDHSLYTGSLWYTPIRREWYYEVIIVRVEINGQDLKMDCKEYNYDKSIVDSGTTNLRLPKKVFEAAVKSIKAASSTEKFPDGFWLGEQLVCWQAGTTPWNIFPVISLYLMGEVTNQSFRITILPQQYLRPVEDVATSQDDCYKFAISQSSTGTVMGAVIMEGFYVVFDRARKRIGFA
Chain of purified human autoBACE-2 (Q9Y5Z0 63-473): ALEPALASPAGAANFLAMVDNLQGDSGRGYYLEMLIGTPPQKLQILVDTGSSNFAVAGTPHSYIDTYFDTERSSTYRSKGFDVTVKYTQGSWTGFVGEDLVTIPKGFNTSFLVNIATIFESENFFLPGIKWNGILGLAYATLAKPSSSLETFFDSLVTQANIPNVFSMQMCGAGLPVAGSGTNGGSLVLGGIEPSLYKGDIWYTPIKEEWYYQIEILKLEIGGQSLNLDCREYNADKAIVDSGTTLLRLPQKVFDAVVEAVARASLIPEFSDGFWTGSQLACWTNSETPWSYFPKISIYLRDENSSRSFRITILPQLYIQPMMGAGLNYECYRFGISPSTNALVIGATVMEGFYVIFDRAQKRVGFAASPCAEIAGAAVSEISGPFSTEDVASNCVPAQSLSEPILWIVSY

Compound	Ki [1] [nM]	Ki [2] [nM]
C[C@H]1C[C@@H]2[C@](c3cc(OCC45CC(C#N)(C4)C5)ccc3F)(CO1)NC(=N)N(C)S2(=O)=O [Example 8, 3-((4-fluoro-3-((4aS,7S,8aR)-3-imino-2,7-dimethyl-1,1-dioxidooctahydropyrano[3,4-e][1,2,4]thiadiazin-4a-yl)phenoxy)methyl)bicyclo[1.1.1]pentane-1-carbonitrile]	9.1	28
COC[C@H]1C[C@@H]2[C@](c3cc(Oc4cnccc4Cl)ccc3F)(CO1)NC(=N)N(C)S2(=O)=O [Example 19, (4aS,7R,8aR)-4a-(5-((4-chloropyridin-3-yl)oxy)-2-fluorophenyl)-3-imino-7-(methoxymethyl)-2-methyloctahydropyrano[3,4-e][1,2,4]thiadiazine 1,1-dioxide]	203	89
C[C@H]1C[C@@H]2[C@](c3cc(Oc4ncc(F)cc4F)ccc3F)(CO1)NC(=N)N(C)S2(=O)=O [Example 5, (4aS,7S,8aR)-4a-(5-((3,5-difluoropyridin-2-yl)oxy)-2-fluorophenyl)-3-imino-2,7-dimethyloctahydropyrano[3,4-e][1,2,4]thiadiazine 1,1-dioxide]	25	13
COC[C@H]1C[C@@H]2[C@](c3cc(Oc4cccnc4)ccc3F)(CO1)NC(=N)N(C)S2(=O)=O [Example 16, (4aS,7R,8aR)-4a-(2-fluoro-5-(pyridin-3-yloxy)phenyl)-3-imino-7-(methoxymethyl)-2-methyloctahydropyrano[3,4-e][1,2,4]thiadiazine 1,1-dioxide]	39	52
COC[C@H]1C[C@@H]2[C@](c3cc(Oc4cncc(OC)n4)ccc3F)(CO1)NC(=N)N(C)S2(=O)=O [Example 9, (4aS,7R,8aR)-4a-(2-fluoro-5-((6-methoxypyrazin-2-yl)oxy)phenyl)-3-imino-7-(methoxymethyl)-2-methyloctahydropyrano[3,4-e][1,2,4]thiadiazine 1,1-dioxide]	4.6	9.4
COC[C@H]1C[C@@H]2[C@](c3cc(Oc4ncc(F)cc4F)ccc3F)(CO1)NC(=N)N(C)S2(=O)=O [Example 12, (4aS,7R,8aR)-4a-(5-((3,5-difluoropyridin-2-yl)oxy)-2-fluorophenyl)-3-imino-7-(methoxymethyl)-2-methyloctahydropyrano[3,4-e][1,2,4]thiadiazine 1,1-dioxide]	20	18
C[C@H]1C[C@@H]2[C@](c3cc(Oc4ncccc4F)ccc3F)(CO1)NC(=N)N(C)S2(=O)=O [Example 1, (4aS,7S,8aR)-4a-(2-fluoro-5-((3-fluoropyridin-2-yl)oxy)phenyl)-3-imino-2,7-dimethyloctahydropyrano[3,4-e][1,2,4]thiadiazine 1,1-dioxide]	3.4	1.6
C[C@H]1C[C@@H]2[C@](c3cc(Oc4cc(C#N)ccn4)ccc3F)(CO1)NC(=N)N(C)S2(=O)=O [Example 3, 2-(4-fluoro-3-((4aS,7S,8aR)-3-imino-2,7-dimethyl-1,1-dioxidooctahydropyrano[3,4-e][1,2,4]thiadiazin-4a-yl)phenoxy)isonicotinonitrile]	2.7	2.3
C[C@H]1C[C@@H]2[C@](c3cc(Oc4cc(F)cnc4F)ccc3F)(CO1)NC(=N)N(C)S2(=O)=O [Example 6, (4aS,7S,8aR)-4a-(5-((2,5-difluoropyridin-3-yl)oxy)-2-fluorophenyl)-3-imino-2,7-dimethyloctahydropyrano[3,4-e][1,2,4]thiadiazine 1,1-dioxide]	7.1	15
COC[C@H]1C[C@@H]2[C@](c3cc(Oc4ncncc4F)ccc3F)(CO1)NC(=N)N(C)S2(=O)=O [Example 11, (4aS,7R,8aR)-4a-(2-fluoro-5-((5-fluoropyrimidin-4-yl)oxy)phenyl)-3-imino-7-(methoxymethyl)-2-methyloctahydropyrano[3,4-e][1,2,4]thiadiazine 1,1-dioxide]	5.9	4.5
COC[C@H]1C[C@@H]2[C@](c3cc(OCC45CC(C#N)(C4)C5)ccc3F)(CO1)NC(=N)N(C)S2(=O)=O [Example 15, 3-((4-fluoro-3-((4aS,7R,8aR)-3-imino-7-(methoxymethyl)-2-methyl-1,1-dioxidooctahydropyrano[3,4-e][1,2,4]thiadiazin-4a-yl)phenoxy)methyl)bicyclo[1.1.1]pentane-1-carbonitrile]	9.1	28
C[C@H]1C[C@@H]2[C@](c3cc(Oc4ncncc4F)ccc3F)(CO1)NC(=N)N(C)S2(=O)=O [Example 4, (4aS,7S,8aR)-4a-(2-fluoro-5-((5-fluoropyrimidin-4-yl)oxy)phenyl)-3-imino-2,7-dimethyloctahydropyrano[3,4-e][1,2,4]thiadiazine 1,1-dioxide]	12	5.9
COC[C@H]1C[C@@H]2[C@](c3cc(Oc4cc(F)cnc4F)ccc3F)(CO1)NC(=N)N(C)S2(=O)=O [Example 13, (4aS,7R,8aR)-4a-(5-((2,5-difluoropyridin-3-yl)oxy)-2-fluorophenyl)-3-imino-7-(methoxymethyl)-2-methyloctahydropyrano[3,4-e][1,2,4]thiadiazine 1,1-dioxide]	2.1	10
COC[C@H]1C[C@@H]2[C@](c3cc(OCC4CC4)ccc3F)(CO1)NC(=N)N(C)S2(=O)=O [Example 14, (4aS,7R,8aR)-4a-(5-(cyclopropylmethoxy)-2-fluorophenyl)-3-imino-7-(methoxymethyl)-2-methyloctahydropyrano[3,4-e][1,2,4]thiadiazine 1,1-dioxide]	7.9	2
C[C@H]1C[C@@H]2[C@](c3cc(OCC4CC4)ccc3F)(CO1)NC(=N)N(C)S2(=O)=O [Example 7, (4aS,7S,8aR)-4a-(5-(cyclopropylmethoxy)-2-fluorophenyl)-3-imino-2,7-dimethyloctahydropyrano[3,4-e][1,2,4]thiadiazine 1,1-dioxide]	28	4.3
COC[C@H]1C[C@@H]2[C@](c3cc(Oc4cccc(C#N)c4)ccc3F)(CO1)NC(=N)N(C)S2(=O)=O [Example 17, 3-(4-fluoro-3-((4aS,7R,8aR)-3-imino-7-(methoxymethyl)-2-methyl-1,1-dioxidooctahydropyrano[3,4-e][1,2,4]thiadiazin-4a-yl)phenoxy)benzonitrile]	4.3	6.9
COC[C@H]1C[C@@H]2[C@](c3cc(Oc4cc(C#N)ccn4)ccc3F)(CO1)NC(=N)N(C)S2(=O)=O [Example 10, 2-(4-fluoro-3-((4aS,7R,8aR)-3-imino-7-(methoxymethyl)-2-methyl-1,1-dioxidooctahydropyrano[3,4-e][1,2,4]thiadiazin-4a-yl)phenoxy)isonicotinonitrile]	1.9	3.4
